Experimental data taken from patent US11180490B2, “Cyclopropyl urea formyl peptide 2 receptor and formyl peptide 1 receptor agonists” (BRISTOL-MYERS SQUIBB COMPANY, priority 2017, dated 2021).
pEC50: −log10 of the molar value.

Tests used:
[1] = biological target: T1, human FPR1 (Homo sapiens, UniProt P21462); assay: FPR1 cyclic adenosine monophosphate (cAMP) assay; assay type: cell-based; conditions: CHO cells overexpressing human FPR1; inhibition of forskolin-stimulated cAMP production; read-out: hFPR1 cAMP EC50
T1 sequence (P21462 1-350): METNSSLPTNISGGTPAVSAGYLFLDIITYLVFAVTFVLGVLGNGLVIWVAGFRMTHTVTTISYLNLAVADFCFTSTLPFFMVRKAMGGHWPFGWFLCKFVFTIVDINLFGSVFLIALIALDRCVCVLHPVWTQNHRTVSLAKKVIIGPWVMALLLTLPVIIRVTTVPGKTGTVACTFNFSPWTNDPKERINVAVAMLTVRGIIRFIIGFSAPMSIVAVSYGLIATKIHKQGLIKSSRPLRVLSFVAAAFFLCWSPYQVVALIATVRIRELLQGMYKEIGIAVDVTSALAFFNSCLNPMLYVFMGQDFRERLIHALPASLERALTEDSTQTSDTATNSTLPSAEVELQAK
Description: (§1) FPR2 and FPR1 Cyclic Adenosine Monophosphate (cAMP) Assays. A mixture of forskolin (5 μM final for FPR2 or 10 μM final for FPR1) and IBMX (200 μM final) were added to 384-well Proxiplates (Perkin-Elmer) pre-dotted with test compounds in DMSO (1% final) at final concentrations in the range of 1.7 nM to 100 μM. Chinese Hamster Ovary cells (CHO) overexpressing human FPR1 or human FPR2 receptors were cultured in F-12 (Ham's) medium supplemented with 10% qualified FBS, 250 μg/ml zeocin and 300 μg/ml hygromycin (Life Technologies). Reactions were initiated by adding 2,000 human FPR2 cells per well or 4,000 human FPR1 cells per well in Dulbecco's PBS (with calcium and magnesium) (Life Technologies) supplemented with 0.1% BSA (Perkin-Elmer). The reaction mixtures were incubated for 30 min at room temperature. The level of intracellular cAMP was determined using the HTRF HiRange cAMP assay reagent kit (Cisbio) according to manufacturer's instruction. Solutions of cryptate conjugated anti-cAMP and d2 flurorophore-labelled cAMP were made in a supplied lysis buffer separately. Upon completion of the reaction, the cells were lysed with equal volume of the d2-cAMP solution and anti-cAMP solution. After a 1-h room temperature incubation, time-resolved fluorescence intensity was measured using the Envision (Perkin-Elmer) at 400 nm excitation and dual emission at 590 nm and 665 nm. A calibration curve was constructed with an external cAMP standard at concentrations ranging from 1 μM to 0.1 pM by plotting the fluorescent intensity ratio from 665 nm emission to the intensity from the 590 nm emission against cAMP concentrations. The potency and activity of a compound to inhibit cAMP production was then determined by fitting to a 4-parametric logistic equation from a plot of cAMP level versus compound concentrations.

[2] = biological target: T2, human FPR2 (Homo sapiens, UniProt P25090); assay: FPR2 cyclic adenosine monophosphate (cAMP) assay; assay type: cell-based; conditions: CHO cells overexpressing human FPR2; inhibition of forskolin-stimulated cAMP production; read-out: hFPR2 cAMP2 EC50
T2 sequence (P25090 1-351): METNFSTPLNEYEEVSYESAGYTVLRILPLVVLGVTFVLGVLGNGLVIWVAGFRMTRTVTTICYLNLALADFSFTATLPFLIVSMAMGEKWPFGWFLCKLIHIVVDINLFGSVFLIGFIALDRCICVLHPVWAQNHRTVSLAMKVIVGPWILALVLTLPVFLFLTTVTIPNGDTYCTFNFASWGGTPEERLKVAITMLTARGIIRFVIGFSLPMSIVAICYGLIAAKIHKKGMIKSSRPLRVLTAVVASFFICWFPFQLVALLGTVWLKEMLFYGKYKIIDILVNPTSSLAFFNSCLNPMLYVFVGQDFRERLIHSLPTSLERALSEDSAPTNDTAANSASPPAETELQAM
Description: as §1

Work on COc1cc(F)c([C@@H]2CNC(=O)[C@H]2NC(=O)NC2(c3cccc(OCc4ccc5ccccc5c4)c3)CC2)c(F)c1 [Example 131, 1-[(3S,4R)-4-(2,6-difluoro-4-methoxyphenyl)-2-oxopyrrolidin-3-yl]-3-(l-{3-[(naphthalen-2-yl)methoxy]phenyl}cyclo-propyl)urea] yielded a pEC50 [1] of 6.00 and a pEC50 [2] of 8.40.

COc1cc(F)c([C@@H]2CN(CC(F)(F)F)C(=O)[C@H]2NC(=O)NC2(c3cccc(C)n3)CC2)c(F)c1 [Example 110, 1-[(3S,4R)-4-(2,6-difluoro-4-methoxyphenyl)-2-oxo-1-(2,2,2-trifluoroethyl)pyrrolidin-3-yl]-3-[1-(6-methylpyridin-2-yl)cyclopropyl]urea] gave a pEC50 [1] of 6.82 and a pEC50 [2] of 7.85.

COc1cc(F)c([C@@H]2CNC(=O)[C@H]2NC(=O)NC2(c3ccc4ccccc4n3)CC2)c(F)c1 [Example 26, 1-[(3S,4R)-4-(2,6-difluoro-4-methoxyphenyl)-2-oxopyrrolidin-3-yl]-3-[1-(quinolin-2-yl)cyclopropyl]urea] showed a pEC50 [1] of 6.49 and a pEC50 [2] of 8.19.

COc1cc(F)c([C@@H]2CNC(=O)[C@H]2NC(=O)NC2(c3nc4c(C(F)(F)F)cccc4s3)CC2)c(F)c1 [Example 96, 1-[(3S,4R)-4-(2,6-difluoro-4-methoxyphenyl)-2-oxopyrrolidin-3-yl]-3-{1-[4-(trifluoromethyl)-1,3-benzothiazol-2-yl]cyclopropyl}urea] showed a pEC50 [1] of 6.92 and a pEC50 [2] of 8.70.

COc1cc(F)c([C@@H]2CNC(=O)[C@H]2NC(=O)NC2(c3ccc4cc(OC)ccc4c3)CC2)c(F)c1 [Example 63, 1-[(3S,4R)-4-(2,6-difluoro-4-methoxyphenyl)-2-oxopyrrolidin-3-yl]-3-[1-(6-methoxynaphthalen-2-yl)cyclopropyl]urea] was tested, and the pEC50 [1] was 5.82 and the pEC50 [2] was 7.47.

COc1cc(F)c([C@@H]2CNC(=O)[C@H]2NC(=O)NC2(c3cccc(Cl)n3)CC2)c(F)c1 [Example 1, 3-[1-(6-chloropyridin-2-yl)cyclopropyl]-1-[(3S,4R)-4-(2,6-difluoro-4-methoxyphenyl)-2-oxopyrrolidin-3-yl]urea] gave a pEC50 [1] of 6.09 and a pEC50 [2] of 8.08.

Molecule COc1cc(F)c([C@@H]2CN(C)C(=O)[C@H]2NC(=O)NC2(c3ccc4ccccc4n3)CC2)c(F)c1 [Example 8, 1-[(3S,4R)-4-(2,6-difluoro-4-methoxyphenyl)-1-methyl-2-oxopyrrolidin-3-yl]-3-[1-(quinolin-2-yl)cyclopropyl]urea] has a pEC50 [1] of 7.18 and a pEC50 [2] of 8.24.

COc1cc(F)c([C@@H]2CN(Cc3nnc(C)o3)C(=O)[C@H]2NC(=O)NC2(c3cccc(C)n3)CC2)c(F)c1 [Example 115] was tested, and the pEC50 [1] was 6.55 and the pEC50 [2] was 7.60.

Work on COc1cc(F)c([C@@H]2CNC(=O)[C@H]2NC(=O)NC2(c3ccc(C)cc3)CC2)c(F)c1 [Example 2, 1-[(3S,4R)-4-(2,6-difluoro-4-methoxyphenyl)-2-oxopyrrolidin-3-yl]-3-[1-(4-methylphenyl)cyclopropyl]urea] yielded a pEC50 [1] of 6.18 and a pEC50 [2] of 7.48.

COc1cc(F)c([C@@H]2CN(CCO)C(=O)[C@H]2NC(=O)NC2(c3ccc4ccccc4n3)CC2)c(F)c1 [Example 67, 1-[(3S,4R)-4-(2,6-difluoro-4-methoxyphenyl)-1-(2-hydroxyethyl)-2-oxopyrrolidin-3-yl]-3-[1-(quinolin-2-yl)cyclopropyl]urea] was tested, and the pEC50 [1] was 6.15 and the pEC50 [2] was 7.20.

Work on COc1cc(F)c([C@@H]2CNC(=O)[C@H]2NC(=O)NC2(c3ccc4cc(Cl)ccc4n3)CC2)c(F)c1 [Example 53, 3-[1-(6-chloroquinolin-2-yl)cyclopropyl]-1-[(3S,4R)-4-(2,6-difluoro-4-methoxyphenyl)-2-oxopyrrolidin-3-yl]urea] yielded a pEC50 [1] of 6.37 and a pEC50 [2] of 7.92.

COc1cc(F)c([C@@H]2CNC(=O)[C@H]2NC(=O)NC2(c3ccc(Cl)c(C)n3)CC2)c(F)c1 [Example 47, 3-[1-(5-chloro-6-methylpyridin-2-yl)cyclopropyl]-1-[(3S,4R)-4-(2.6-difluoro-4-methoxyphenyl)-2-oxopyrrolidin-3-yl]urea] gave a pEC50 [1] of 6.57 and a pEC50 [2] of 8.64.

With COc1cc(F)c([C@@H]2CN(CC3CC3)C(=O)[C@H]2NC(=O)NC2(c3cccc(C)n3)CC2)c(F)c1 [Example 94, 1-((3S,4R)-1-(cyclopropylmethyl)-4-(2,6-difluoro-4-methoxyphenyl)-2-oxopyrrolidin-3-yl)-3-(1-(6-methylpyridin-2-yl)cyclopropyl)urea] the pEC50 [1] was 7.59 and the pEC50 [2] was 8.82.

For COc1cc(F)c([C@@H]2CNC(=O)[C@H]2NC(=O)NC2(c3nc4ccc(C)cc4s3)CC2)c(F)c1 [Example 85, 1-[(3S,4R)-4-(2,6-difluoro-4-methoxyphenyl)-2-oxopyrrolidin-3-yl]-3-[1-(6-methyl-1,3-benzothiazol-2-yl)cyclopropyl]urea], the pEC50 [1] was 5.80 and the pEC50 [2] was 7.92.

For COc1cc(F)c([C@@H]2CNC(=O)[C@H]2NC(=O)NC2(c3ccc4ncccc4n3)CC2)c(F)c1 [Example 4, 1-[(3S,4R)-4-(2,6-difluoro-4-methoxyphenyl)-2-oxopyrrolidin-3-yl]-3-[1-(1,5-naphthyridin-2-yl)cyclopropyl]urea], the pEC50 [1] was 6.00 and the pEC50 [2] was 6.96.

In the case of CCCN1C[C@@H](c2c(F)cc(OC)cc2F)[C@H](NC(=O)NC2(c3ccc4ccccc4n3)CC2)C1=O [Example 95, 1-[(3S,4R)-4-(2,6-difluoro-4-methoxyphenyl)-2-oxo-1-propylpyrrolidin-3-yl]-3-[1-(quinolin-2-yl)cyclopropyl]urea], the pEC50 [1] was 7.72 and the pEC50 [2] was 8.77.

In the case of COc1cc(F)c([C@@H]2CNC(=O)[C@H]2NC(=O)NC2(c3cccc(C(F)(F)F)c3)CC2)c(F)c1 [Example 19, 1-[(3S,4R)-4-(2,6-difluoro-4-methoxyphenyl)-2-oxopyrrolidin-3-yl]-3-{1-[3-(trifluoro-methyl)phenyl]cyclo-propyl}urea], the pEC50 [1] was 5.64 and the pEC50 [2] was 7.31.

COc1ccc([C@@H]2CNC(=O)[C@H]2NC(=O)NC2(c3cccc(Cl)n3)CC2)c(F)c1 [Example 48, 3-[1-(6-chloropyridin-2-yl)cyclopropyl]-1-[(3S,4R)-4-(2-fluoro-4-methoxyphenyl)-2-oxopyrrolidin-3-yl]urea] gave a pEC50 [1] of 6.85 and a pEC50 [2] of 8.01.

COc1cc(F)c([C@@H]2CNC(=O)[C@H]2NC(=O)NC2(c3ccc(C)c(Cl)c3)CC2)c(F)c1 [Example 50, 3-[1-(3-chloro-4-methylphenyl)cyclopropyl]-1-[(3S,4R)-4-(2,6-difluoro-4-methoxyphenyl)-2-oxopyrrolidin-3-yl]urea] was tested, and the pEC50 [1] was 6.70 and the pEC50 [2] was 8.77.
